Consider 40 molecules from patent US10246456B2, “IRAK4 inhibiting agents” (BIOGEN MA INC., priority 2014, dated 2019).

The structures appear in SMILES notation. Values joined by “and” are separate entries in the source; they are usually repeats but may differ in a detail not shown here. Equal values may be shown once.

This assay has as its target IRAK4 (Homo sapiens (Human), UniProt Q9NWZ3). Nature of the assay: IRAK-4 AlphaScreen biochemical kinase assay. As to conditions: 1 nM IRAK4, 1 mM ATP, 3.5 h at RT. In short, it runs like this:
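AlphaScreen read-out: streptavidin beads bind the biotinylated peptide and protein A beads bind the anti-phosphothreonine antibody, so energy transfer reports phosphorylation of the peptide. The kinase is human IRAK-4.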
On the technique in general: In Alpha technology, singlet oxygen from a donor bead excites a nearby acceptor bead.

Sequence of IRAK4 (Q9NWZ3 whole entry, species assumed): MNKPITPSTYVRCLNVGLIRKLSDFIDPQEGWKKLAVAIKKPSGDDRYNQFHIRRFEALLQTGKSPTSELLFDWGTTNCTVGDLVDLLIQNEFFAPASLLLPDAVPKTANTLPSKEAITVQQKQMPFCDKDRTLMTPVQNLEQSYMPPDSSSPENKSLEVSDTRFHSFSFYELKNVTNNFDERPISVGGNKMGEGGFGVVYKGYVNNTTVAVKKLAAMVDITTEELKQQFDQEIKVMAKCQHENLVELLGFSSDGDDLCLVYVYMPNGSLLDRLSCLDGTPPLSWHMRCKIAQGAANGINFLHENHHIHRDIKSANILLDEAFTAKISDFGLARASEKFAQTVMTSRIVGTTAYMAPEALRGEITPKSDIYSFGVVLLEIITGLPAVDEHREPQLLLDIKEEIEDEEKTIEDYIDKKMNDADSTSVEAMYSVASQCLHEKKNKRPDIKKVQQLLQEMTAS

In the case of `CC(N)c1cccc(-c2ccc3cnn(-c4cccc(C(N)=O)n4)c3c2)n1` (stereo not shown) [Example 126, 6-(6-(6-(1-aminoethyl)pyridin-2-yl)-1H-indazol-1-yl)picolinamide], the IC50 was < 100 nM.

For `CCC(N)c1cccc(-c2ccc3cnn(-c4cccc(C(F)(F)F)n4)c3c2)n1` (stereo not shown) [Example 127, 1-(6-(1-(6-(trifluoromethyl)pyridin-2-yl)-1H-indazol-6-yl)pyridin-2-yl)propan-1-amine], the IC50 was < 100 nM.

`NC(c1cccc(-c2ccc3cnn(-c4cccc(C(F)(F)F)n4)c3c2)n1)C1CC1` (stereo not shown) [Example 128, cyclopropyl(6-(1-(6-(trifluoromethyl)pyridin-2-yl)-1H-indazol-6-yl)pyridin-2-yl)methanamine]: the IC50 was < 100 nM.

Turning to `CC(C)(N)c1cccc(-c2ccc3cnn(-c4cccc(C(F)(F)F)n4)c3c2)n1` [Example 129, 2-(6-(1-(6-(trifluoromethyl)pyridin-2-yl)-1H-indazol-6-yl)pyridin-2-yl)propan-2-amine], the IC50 is < 100 nM.

With `Cc1cccc(-n2ncc3ccc(-c4cccc(C(C)O)n4)cc32)n1` (stereo not shown) [Example 130, 1-(6-(1-(6-methylpyridin-2-yl)-1H-indazol-6-yl)pyridin-2-yl)ethanol], the IC50 lay in the range of 100 to 1000 nM.

With `Cc1cccc(-n2ncc3ccc(-c4cccc(C(N)C5CC5)n4)cc32)n1` (stereo not shown) [Example 131, cyclopropyl(6-(1-(6-methylpyridin-2-yl)-1H-indazol-6-yl)pyridin-2-yl)methanamine], the 50% inhibitory concentration (IC50) is < 100 nM.

With `CCCC(N)c1cccc(-c2ccc3cnn(-c4cccc(C)n4)c3c2)n1` (stereo not shown) [Example 132, 1-(6-(1-(6-methylpyridin-2-yl)-1H-indazol-6-yl)pyridin-2-yl)butan-1-amine], the IC50 is < 100 nM.

Take `Cc1csc(-n2ncc3ccc(-c4cccc(C(C)N)n4)cc32)n1` (stereo not shown) [Example 134, 1-(6-(1-(4-methylthiazol-2-yl)-1H-indazol-6-yl)pyridin-2-yl)ethanamine]: the IC50 was in the range of 100 to 1000 nM.

Consider `Cc1cnc(-n2ncc3ccc(-c4cccc(C(C)N)n4)cc32)s1` (stereo not shown) [Example 135, 1-(6-(1-(5-methylthiazol-2-yl)-1H-indazol-6-yl)pyridin-2-yl)ethanamine], for which the IC50 is 100 to 1000 nM.

`Cc1nc(-n2ncc3ccc(-c4cccc(C(C)N)n4)cc32)cs1` (stereo not shown) [Example 136, 1-(6-(1-(2-methylthiazol-4-yl)-1H-indazol-6-yl)pyridin-2-yl)ethanamine]: the IC50 was 100 to 1000 nM.

`CC(N)c1cccc(-c2ccc3cnn(-c4ccn(C)n4)c3c2)n1` (stereo not shown) [Example 137, 1-(6-(1-(1-methyl-1H-pyrazol-3-yl)-1H-indazol-6-yl)pyridin-2-yl)ethanamine]: the IC50 is 100 to 1000 nM.

Regarding `CC(N)c1cccc(-c2ccc3cnn(-c4cn(C)cn4)c3c2)n1` (stereo not shown) [Example 138, 1-(6-(1-(1-methyl-1H-imidazol-4-yl)-1H-indazol-6-yl)pyridin-2-yl)ethanamine], the IC50 was 100 to 1000 nM and 1000 to 10000 nM.

`Cc1cccc(-n2ncc3ccc(-c4nc(CN)cs4)cc32)n1` [Example 139, (2-(1-(6-methylpyridin-2-yl)-1H-indazol-6-yl)thiazol-4-yl)methanamine] displayed an IC50 of 100 to 1000 nM.

In the case of `Cc1cccc(-n2ncc3ccc(-c4ncc(CN)s4)cc32)n1` [Example 140, (2-(1-(6-methylpyridin-2-yl)-1H-indazol-6-yl)thiazol-5-yl)methanamine], the IC50 was 100 to 1000 nM.

In the case of `Cc1cccc(-n2ncc3ccc(-c4cccc([C@@H](C)N)n4)cc32)n1` [Example 141, (R)-1-(6-(1-(6-methylpyridin-2-yl)-1H-indazol-6-yl)pyridin-2-yl)ethanamine], the IC50 was < 100 nM.

Take `Cc1cccc(-n2ncc3ccc(-c4cccc([C@H](C)N)n4)cc32)n1` [Example 142, (S)-1-(6-(1-(6-methylpyridin-2-yl)-1H-indazol-6-yl)pyridin-2-yl)ethanamine]: the IC50 is < 100 nM.

For `C[C@H](N)c1cccc(-c2ccc3cnn(-c4cccc(CO)n4)c3c2)n1` [Example 143, (S)-(6-(6-(6-(1-aminoethyl)pyridin-2-yl)-1H-indazol-1-yl)pyridin-2-yl)methanol], the IC50 is < 100 nM.

For the molecule `C[C@@H](N)c1cccc(-c2ccc3cnn(-c4cccc(CO)n4)c3c2)n1` [Example 144, (R)-(6-(6-(6-(1-aminoethyl)pyridin-2-yl)-1H-indazol-1-yl)pyridin-2-yl)methanol], the IC50 is < 100 nM.

In the case of `CCC[C@H](N)c1cccc(-c2ccc3cnn(-c4cccc(CO)n4)c3c2)n1` [Example 145, (S)-(6-(6-(6-(1-aminobutyl)pyridin-2-yl)-1H-indazol-1-yl)pyridin-2-yl)methanol], the IC50 was < 100 nM.

In the case of `CCC[C@@H](N)c1cccc(-c2ccc3cnn(-c4cccc(CO)n4)c3c2)n1` [Example 146, (R)-(6-(6-(6-(1-aminobutyl)pyridin-2-yl)-1H-indazol-1-yl)pyridin-2-yl)methanol], the IC50 was < 100 nM.

In the case of `Cc1cccc(-n2ncc3ccc(-c4cc(C(N)=O)ccn4)cc32)n1` [Example 201, 2-(1-(6-methylpyridin-2-yl)-1H-indazol-6-yl)isonicotinamide], the IC50 was > 10000 nM.

`Cc1cccc(-n2ncc3ccc(-c4cncc(N(C)C)c4)cc32)n1` [Example 202, N,N-dimethyl-5-(1-(6-methylpyridin-2-yl)-1H-indazol-6-yl)pyridin-3-amine]: the IC50 lay in the range of 100 to 1000 nM.

Consider `Cc1cccc(-n2ncc3ccc(-c4cncc(N5CCCC5)c4)cc32)n1` [Example 203, 1-(6-methylpyridin-2-yl)-6-(5-(pyrrolidin-1-yl)pyridin-3-yl)-1H-indazole], for which the IC50 was in the range of 1000 to 10000 nM.

The molecule `Cc1cccc(-n2ncc3ccc(-c4cc(N)cnc4C)cc32)n1` [Example 204, 6-methyl-5-(1-(6-methylpyridin-2-yl)-1H-indazol-6-yl)pyridin-3-amine] came in with an IC50 of 100 to 1000 nM.

As to `Nc1cncc(-c2ccc3cnn(-c4cccc(C5CCCC5)n4)c3c2)c1` [Example 205, 5-(1-(6-cyclopentylpyridin-2-yl)-1H-indazol-6-yl)pyridin-3-amine], the IC50 was > 10000 nM.

Consider `Cc1cccc(-n2ncc3ccc(-c4cccc5c4CCNC5=O)cc32)n1` [Example 206, 5-(1-(6-methylpyridin-2-yl)-1H-indazol-6-yl)-3,4-dihydroisoquinolin-1(2H)-one], for which the IC50 was > 10000 nM.

Molecule `CC(=O)c1cccc(-c2cc(F)c3cnn(-c4cccc(C(F)(F)F)n4)c3c2)n1` [Example 207, 1-(6-(4-fluoro-1-(6-(trifluoromethyl)pyridin-2-yl)-1H-indazol-6-yl)pyridin-2-yl)ethanone] came in with an IC50 of 1000 to 10000 nM.

For `O=C1CCc2ccc(-c3ccc4cnn(-c5cccc(C(F)(F)F)n5)c4c3)nc21` [Example 210, 2-(1-(6-(trifluoromethyl)pyridin-2-yl)-1H-indazol-6-yl)-5H-cyclopenta[b]pyridin-7(6H)-one], the IC50 was > 10000 nM.

As to `N#Cc1cccc(-c2ccc3cnn(-c4cccc(C(F)(F)F)n4)c3c2)n1` [Example 211, 6-(1-(6-(trifluoromethyl)pyridin-2-yl)-1H-indazol-6-yl)picolinonitrile], the IC50 is 1000 to 10000 nM.

Turning to `Nc1cc(-c2ccc3cnn(-c4cccc(C(F)(F)F)n4)c3c2)cc(C(=O)O)n1` [Example 213, 6-amino-4-(1-(6-(trifluoromethyl)pyridin-2-yl)-1H-indazol-6-yl)picolinic acid], the IC50 lay within 1000 to 10000 nM.

As for `Cc1cccc(-n2ncc3c(C#N)cc(-c4cccc(C(C)N)n4)cc32)n1` (stereo not shown) [Example 214, 6-(6-(1-aminoethyl)pyridin-2-yl)-1-(6-methylpyridin-2-yl)-1H-indazole-4-carbonitrile], the IC50 was < 100 nM.

In turn, `Cc1cccc(-n2cc3c(CN)cc(-c4cccc(C(C)N)n4)cc3n2)n1` (stereo not shown) [Example 215, 1-(6-(4-(aminomethyl)-2-(6-methylpyridin-2-yl)-2H-indazol-6-yl)pyridin-2-yl)ethanamine] had an IC50 of 1000 to 10000 nM.

Consider `CC(c1cccc(-c2ccc3cnn(-c4cccc(C(F)(F)F)n4)c3c2)n1)N(C)C` (stereo not shown) [Example 216, N,N-dimethyl-1-(6-(1-(6-(trifluoromethyl)pyridin-2-yl)-1H-indazol-6-yl)pyridin-2-yl)ethanamine], for which the IC50 is < 100 nM.

For `CC(=O)NCc1cc(-c2cccc(C(C)N)n2)cc2nn(-c3cccc(C)n3)cc12` (stereo not shown) [Example 217, N-((6-(6-(1-aminoethyl)pyridin-2-yl)-2-(6-methylpyridin-2-yl)-2H-indazol-4-yl)methyl)acetamide], the IC50 was in the range of 1000 to 10000 nM.

In turn, `CC(=O)c1cccc(-c2cc(Cl)c3cnn(-c4cccc(C)n4)c3c2)n1` [Example 218, 1-(6-(4-chloro-1-(6-methylpyridin-2-yl)-1H-indazol-6-yl)pyridin-2-yl)ethanone] showed an IC50 of 1000 to 10000 nM.

With `C/C(=N/O)c1cccc(-c2cc(Cl)c3cnn(-c4cccc(C)n4)c3c2)n1` [Example 219, (Z)-1-(6-(4-chloro-1-(6-methylpyridin-2-yl)-1H-indazol-6-yl)pyridin-2-yl)ethanone oxime], the IC50 lay in the range of 1000 to 10000 nM.

For `Cc1cccc(-n2ncc3ccc(-c4cccc(C(C)N(C)C)n4)cc32)n1` (stereo not shown) [Example 220, N,N-dimethyl-1-(6-(1-(6-methylpyridin-2-yl)-1H-indazol-6-yl)pyridin-2-yl)ethanamine], the IC50 lay in the range of 100 to 1000 nM.

Regarding `C/C(=N/O)c1cccc(-c2ccc3cnc(-c4cccc(C(F)(F)F)n4)n3c2)n1` [Example 224, (Z)-1-(6-(3-(6-(trifluoromethyl)pyridin-2-yl)imidazo[1,5-a]pyridin-6-yl)pyridin-2-yl)ethanone oxime], the IC50 was > 10000 nM.

As to `CC(=O)c1cccc(-c2cc(N(C)C(=O)OC(C)(C)C)c3cnn(-c4cccc(C)n4)c3c2)n1` [Example 225, tert-butyl (6-(6-acetylpyridin-2-yl)-1-(6-methylpyridin-2-yl)-1H-indazol-4-yl)(methyl)carbamate], the IC50 was 1000 to 10000 nM.

Consider `C/C(=N/O)c1cccc(-c2cc(N(C)C(=O)OC(C)(C)C)c3cnn(-c4cccc(C)n4)c3c2)n1` [Example 226, (Z)-tert-butyl (6-(6-(1-(hydroxyimino)ethyl)pyridin-2-yl)-1-(6-methylpyridin-2-yl)-1H-indazol-4-yl)(methyl)carbamate], for which the IC50 is > 10000 nM.

The term IC50 denotes the point on the concentration scale where inhibition reaches its midpoint. A lower IC50 goes with inhibition by little substance.
